Laboratory results taken from patent US7531530B2, “Therapeutic compounds” (Cancer Research Technology Limited, priority 2003, dated 2009).

Legend:
[1] = Plasma and tumour pharmacokinetics in mice bearing SW620 xenografts; assay type: in vivo
[2] = target: T1, PARP (pbl parp) (Mus musculus, UniProt P11103); test: PARP activity in peripheral blood lymphocytes of formula I-phosphate treated mice (10H antibody); assay type: in vivo
T1 construct: from tissue; host or cells: peripheral blood lymphocytes of treated mice
T1 sequence (P11103 whole entry): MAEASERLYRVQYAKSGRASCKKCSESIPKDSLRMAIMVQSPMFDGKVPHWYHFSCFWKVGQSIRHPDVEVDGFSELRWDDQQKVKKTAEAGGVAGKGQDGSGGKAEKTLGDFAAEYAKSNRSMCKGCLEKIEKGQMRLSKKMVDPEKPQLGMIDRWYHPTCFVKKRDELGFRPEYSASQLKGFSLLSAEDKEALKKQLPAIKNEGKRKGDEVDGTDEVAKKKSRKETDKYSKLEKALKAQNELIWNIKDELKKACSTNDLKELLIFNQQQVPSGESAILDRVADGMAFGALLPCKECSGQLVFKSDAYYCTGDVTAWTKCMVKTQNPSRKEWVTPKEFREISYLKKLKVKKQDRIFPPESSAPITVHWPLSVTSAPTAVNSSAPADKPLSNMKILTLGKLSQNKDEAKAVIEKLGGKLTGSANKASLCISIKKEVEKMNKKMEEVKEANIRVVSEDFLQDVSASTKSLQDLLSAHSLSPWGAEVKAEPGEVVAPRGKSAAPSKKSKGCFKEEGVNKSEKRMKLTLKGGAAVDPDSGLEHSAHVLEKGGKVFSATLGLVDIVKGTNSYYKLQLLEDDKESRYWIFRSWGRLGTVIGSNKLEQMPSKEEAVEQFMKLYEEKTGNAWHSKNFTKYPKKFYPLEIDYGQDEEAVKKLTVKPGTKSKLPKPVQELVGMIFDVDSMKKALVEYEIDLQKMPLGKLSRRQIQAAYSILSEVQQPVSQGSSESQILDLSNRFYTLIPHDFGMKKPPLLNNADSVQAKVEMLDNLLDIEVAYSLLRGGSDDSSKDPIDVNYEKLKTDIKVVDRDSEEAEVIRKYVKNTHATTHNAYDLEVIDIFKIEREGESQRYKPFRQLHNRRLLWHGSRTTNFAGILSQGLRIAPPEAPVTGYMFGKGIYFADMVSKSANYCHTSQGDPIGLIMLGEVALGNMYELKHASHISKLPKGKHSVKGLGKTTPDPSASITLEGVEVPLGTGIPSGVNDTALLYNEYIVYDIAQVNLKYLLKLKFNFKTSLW

[3] = target: PARP (tumour PARP) (Homo sapiens, UniProt P09874); test: PARP activity in SW620 tumour homogenates of formula I-phosphate treated mice (10H antibody); assay type: in vivo
PARP (tumour PARP), sequence (P09874 whole entry): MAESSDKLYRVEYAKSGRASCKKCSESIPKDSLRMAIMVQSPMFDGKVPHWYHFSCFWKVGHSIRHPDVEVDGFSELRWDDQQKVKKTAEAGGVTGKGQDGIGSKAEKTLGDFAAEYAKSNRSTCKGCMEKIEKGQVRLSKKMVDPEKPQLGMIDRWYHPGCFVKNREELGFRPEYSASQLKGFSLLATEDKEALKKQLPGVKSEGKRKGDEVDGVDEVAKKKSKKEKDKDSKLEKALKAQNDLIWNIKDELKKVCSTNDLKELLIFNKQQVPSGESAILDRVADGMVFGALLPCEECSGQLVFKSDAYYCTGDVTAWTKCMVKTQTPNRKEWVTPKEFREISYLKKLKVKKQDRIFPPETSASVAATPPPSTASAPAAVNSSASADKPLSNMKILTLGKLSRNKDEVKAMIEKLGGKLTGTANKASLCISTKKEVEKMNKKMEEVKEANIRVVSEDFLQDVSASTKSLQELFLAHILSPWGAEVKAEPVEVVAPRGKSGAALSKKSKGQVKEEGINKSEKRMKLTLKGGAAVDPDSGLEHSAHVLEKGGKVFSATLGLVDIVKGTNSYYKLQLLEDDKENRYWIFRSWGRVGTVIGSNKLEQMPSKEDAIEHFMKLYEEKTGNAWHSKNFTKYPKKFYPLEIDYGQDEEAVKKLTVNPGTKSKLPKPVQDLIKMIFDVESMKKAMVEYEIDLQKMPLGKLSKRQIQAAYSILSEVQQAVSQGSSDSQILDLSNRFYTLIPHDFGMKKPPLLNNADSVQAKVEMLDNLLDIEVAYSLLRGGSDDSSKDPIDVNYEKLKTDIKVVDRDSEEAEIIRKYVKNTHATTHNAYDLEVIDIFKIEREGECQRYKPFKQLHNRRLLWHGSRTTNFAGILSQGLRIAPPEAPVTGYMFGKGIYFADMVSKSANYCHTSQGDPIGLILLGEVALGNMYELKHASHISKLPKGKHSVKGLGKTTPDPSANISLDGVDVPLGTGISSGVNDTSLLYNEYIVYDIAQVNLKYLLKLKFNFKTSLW

[4] = Solubility; assay type: physicochemical; conditions: phosphate salt versus parent compound
[5] = target: T2, PARP (Mus musculus, UniProt P11103); test: Cellular PARP activity assay, permeabilised L1210 cells; assay type: cell-based; conditions: L1210 cells permeabilised with digitonin prior to adding the inhibitor
T2 construct: endogenous in cells; host or cells: L1210 cells
T2 sequence (P11103 whole entry): as the sequence (P11103 whole entry) above
Protocol: (§1) Exponentially growing cells were exposed to 1% DMSO in culture medium (control) or a compound of formula I or III in 1% DMSO at the concentrations indicated in FIG. 4 to cells permeabilised with digitonin, or intact cells for 20 minutes prior to washing and digitonin-permeabilization. PARP activity was measured by incorporation of a [32P] labelled NAD+ substrate into TCA precipitateble polymers after stimulation by the addition of a blunt-ended oligonucleotide and compared with non-oligonucleotide-stimulated cells. PARP activity in tumour homogenates (1 in 40 in isotonic buffer) from formula III-treated mice was measured in the same way. PARP activity in pbls and tumour homogenates from formula I-phosphate treated mice was measured by immunological detection of polymer using the 10H antibody. Briefly, tumour homogenates diluted to up to 1:1000 in isotonic buffer were incubated with 350 μM NAD for 6 min and blotted onto nitrocellulose membrane. The poly(ADP-ribose) (PAR) polymer formation was quantified by chemiluminescence detection using a Fuji LAS3000 UV Illuminator by reference to serial dilutions of a PAR standard, following incubation with 10H antibody to PAR and a secondary anti-mouse antibody.

[6] = target: T3, PARP (tumour PARP act) (Homo sapiens, UniProt P09874); test: PARP activity in SW620 tumour homogenates of formula III-treated mice ([32P] NAD+ incorporation); assay type: in vivo; conditions: formula III 10 mg/kg intraperitoneal; SW620 xenografts
T3 construct: from tissue; host or cells: SW620 xenograft tumour homogenates from treated mice
T3 sequence (P09874 whole entry): as the sequence (P09874 whole entry) above
Protocol: as §1

[7] = test system: SW620 xenografts; test: Tumour growth in mice bearing SW620 xenografts; assay type: in vivo; conditions: formula III 15 mg/kg daily×5 in conjunction with temozolomide
From the text: FIG. 8 is a graph showing the tumour growth (median relative tumour volume) in mice bearing SW620 xenografts following treatment with formula III in combination with temozolomide (TMZ) and with TMZ alone;
FIG. 9 is a graph showing the tumour growth (median relative tumour volume) of mice bearing SW620 xenografts following treatment with formula I-phosphate in combination with temozolomide (TMZ) and with formula I-phosphate and TMZ alone;
However, shortly after this time the tumour size begins to increase.

[8] = target: T2, PARP; test: Cellular PARP activity assay, intact L1210 cells; assay type: cell-based; conditions: intact L1210 cells exposed for 20 minutes prior to permeabilisation
Protocol: as §1

[9] = formula I-phosphate 1 mg/kg, compared with 10 mg/kg
[10] = formula I-phosphate 10 mg/kg intraperitoneal, 24 hr after administration
[11] = formula I-phosphate 10 mg/kg intraperitoneal, thirty minutes after administration
[12] = formula III 10 mg/kg intraperitoneal

plasma concentration of formula I [1, 9] | tumour concentration of formula I [1, 9] | plasma concentration of parent compound (formula I) [1, 10] | tumour concentration of parent compound (formula I) [1, 10] | plasma concentration of parent compound (formula I) [1, 11] | tumour concentration of parent compound (formula I) [1, 11] | effect on PARP activity in pbls [2, 9] | PARP activity in pbls ([2]; formula I-phosphate 10 mg/kg intraperitoneal, up to 24 hr) | effect on PARP activity in tumour [3, 9] | PARP activity in tumour ([3]; formula I-phosphate 10 mg/kg intraperitoneal, up to 24 hr, SW620 xenografts) | solubility relative to formula I [4] | PARP inhibitory activity, formula I compared with formula III [5] | distribution to the tumour [1, 12] | retention in tumour versus plasma with time [1, 12] | PARP activity in the tumour [6] | PARP inhibitory activity, formula I compared with formula III [8] | Structure (SMILES) | decrease of concentration with time, plasma versus tumour ([1]; formula I-phosphate 10 mg/kg intraperitoneal) | tumour outcome at autopsy at the end of the experiment [7]
lower levels | lower levels | none could be detected | significant levels were detectable | high levels | high levels | less pronounced effect | < 50 % control | less pronounced effect | < 50 % control | increases the solubility | – | – | – | – | – | CNCc1ccc(-c2[nH]c3cc(F)cc4c3c2CCNC4=O)cc1.O=P(O)(O)O [formula I-phosphate] | more rapidly in the plasma than in the tumour | –
– | – | – | – | – | – | – | – | – | – | – | no difference | distributes well to the tumour | preferentially retained with time | inhibits PARP activity | – | CN(C)Cc1ccc(-c2nc3cccc4c3n2CCNC4=O)cc1 [formula III] | – | complete tumour regression
– | – | – | – | – | – | – | – | – | – | – | no difference | – | – | – | more potent | CNCc1ccc(-c2[nH]c3cc(F)cc4c3c2CCNC4=O)cc1 [formula I] | – | –
